The target in assay [1] is EGFR (human) (UniProt P00533). The settings on record: igrov-1.
Assay [2] has as its target EGFR (human) (UniProt P00533). The settings on record: a431.
In assay [3] the target is EGFR (human) (UniProt P00533). The conditions noted are these: skov-3.
A further assay concerns the target EGFR (mouse) (UniProt P00533). The settings on record: nih3t3.
The target of assay [4] is EGFR (human) (UniProt P00533). The conditions noted are these: a431. The source holds these as a separate data set.
The next assay concerns the target EGFR (UniProt P00533).

Values joined by “and” are separate entries in the source; they are usually repeats but may differ in a detail not shown here. Equal values may be shown once.

IC50 data for five compounds are collected here from the Kinase Knowledgebase extract (Sharma et al. 2016).

Sequence of EGFR (human) (P00533 whole entry, looked up): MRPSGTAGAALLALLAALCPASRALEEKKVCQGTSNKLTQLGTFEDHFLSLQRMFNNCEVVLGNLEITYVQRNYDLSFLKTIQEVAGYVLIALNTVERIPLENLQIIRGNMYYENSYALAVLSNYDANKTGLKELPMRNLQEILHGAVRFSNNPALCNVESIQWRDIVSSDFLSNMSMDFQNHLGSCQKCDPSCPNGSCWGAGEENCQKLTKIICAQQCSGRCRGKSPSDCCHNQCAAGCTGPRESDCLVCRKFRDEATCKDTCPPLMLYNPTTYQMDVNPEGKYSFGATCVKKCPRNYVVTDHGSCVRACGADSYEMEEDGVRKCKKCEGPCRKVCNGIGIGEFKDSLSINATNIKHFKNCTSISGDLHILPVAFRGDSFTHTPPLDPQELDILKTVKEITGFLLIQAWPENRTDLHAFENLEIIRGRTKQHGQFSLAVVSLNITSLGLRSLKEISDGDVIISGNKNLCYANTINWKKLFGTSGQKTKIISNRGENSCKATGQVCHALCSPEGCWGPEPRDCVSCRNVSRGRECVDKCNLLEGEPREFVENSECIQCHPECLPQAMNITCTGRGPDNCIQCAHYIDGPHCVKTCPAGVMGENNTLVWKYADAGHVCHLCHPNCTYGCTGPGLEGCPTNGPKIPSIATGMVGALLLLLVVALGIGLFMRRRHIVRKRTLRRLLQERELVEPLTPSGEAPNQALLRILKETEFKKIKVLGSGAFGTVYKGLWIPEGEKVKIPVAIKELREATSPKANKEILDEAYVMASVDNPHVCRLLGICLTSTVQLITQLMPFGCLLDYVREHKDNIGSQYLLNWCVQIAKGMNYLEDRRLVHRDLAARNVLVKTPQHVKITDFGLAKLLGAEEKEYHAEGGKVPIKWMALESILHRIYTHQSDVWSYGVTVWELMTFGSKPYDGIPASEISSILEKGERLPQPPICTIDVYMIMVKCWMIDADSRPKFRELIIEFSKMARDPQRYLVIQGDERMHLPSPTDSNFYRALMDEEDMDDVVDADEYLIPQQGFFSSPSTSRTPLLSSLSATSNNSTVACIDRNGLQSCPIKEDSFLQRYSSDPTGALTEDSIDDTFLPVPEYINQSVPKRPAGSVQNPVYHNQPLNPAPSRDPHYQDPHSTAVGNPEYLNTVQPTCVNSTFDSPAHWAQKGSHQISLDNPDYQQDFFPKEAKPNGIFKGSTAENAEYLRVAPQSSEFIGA
Sequence of EGFR (P00533 whole entry, looked up): as above

The IC50 is the concentration that gives 50% inhibition. High values mean lower potency, low ones higher potency. Consider `CC(=O)Oc1ccc(OC(C)=O)c2c1CC(C)=CCC[C@]13O[C@H]1[C@H]2OC3=O`, for which the IC50 against EGFR (human) [1] is 22.4 µM; against EGFR (human) [2], 15.8 µM; against EGFR (human) [3], 41.2 µM; in the assay with EGFR (mouse), 8.3 µM; on EGFR (human) [4], 22 µM and 100 µM.
Consider `CC1=CCC[C@]23O[C@H]2[C@@H](OC3=O)C2=C(C1)C(=O)C=CC2=O`, for which the IC50 on EGFR is 27 µM; at EGFR (human) [1], 6.1 µM; at EGFR (human) [2], 3.6 µM; against EGFR (human) [3] it was 21.9 µM; on EGFR (human) [4], 100 µM and > 100 µM.
With `CC1=CCC[C@]23O[C@H]2[C@@H](OC3=O)c2c(O)ccc(O)c2C1`, the IC50 against EGFR amounted to 26 µM.
On to `CC1=CCC[C@]23O[C@H]2[C@@H](OC3=O)C2=C(C1)C(=O)C(O)=CC2=O`, for which the IC50 amounted to 5.5 µM at EGFR; 0.8 µM against EGFR (human) [1]; 0.1 µM on EGFR (human) [2]; 1 µM at EGFR (human) [3]; 0.02 µM with EGFR (mouse).
Turning to `COc1ccc(OC)c2c1CC(C)=CCC[C@]13O[C@H]1[C@H]2OC3=O`, the IC50 against EGFR (human) [1], at EGFR (human) [2] and on EGFR (human) [3] was more than 100 µM in each case.
